Here are results for 22 compounds from patent US8901118B2, “Compounds and methods for kinase modulation, and indications therefor” (Plexxikon Inc., priority 2010, dated 2014).

In one experiment the target is c-Kit kinase (Homo sapiens, UniProt P10721). In words: c-Kit kinase biochemical activity assay (AlphaScreen, biotin-(E4Y)10 phosphorylation). The conditions noted are these: 100 μM ATP; read-out: Biochemical Inhibition IC50 Kit. The essentials: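 AlphaScreen read-out (streptavidin donor, anti-phosphotyrosine PY20 acceptor beads, EDTA stop) of c-Kit activity. Reaction: 0.75 ng kinase, 100 µM ATP, 30 nM biotin-(E4Y)10, 25 mM HEPES pH 7.5, 2 mM MgCl2, 2 mM MnCl2, 5% DMSO, 1 h room temperature. IC50 derived over an 8-point, two-fold dilution series.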
On the technique in general: In Alpha technology, singlet oxygen from a donor bead excites a nearby acceptor bead.

The target of the next experiment is T1, Flt-3 kinase (Homo sapiens, UniProt P36888).
T1 sequence (P36888 27-993): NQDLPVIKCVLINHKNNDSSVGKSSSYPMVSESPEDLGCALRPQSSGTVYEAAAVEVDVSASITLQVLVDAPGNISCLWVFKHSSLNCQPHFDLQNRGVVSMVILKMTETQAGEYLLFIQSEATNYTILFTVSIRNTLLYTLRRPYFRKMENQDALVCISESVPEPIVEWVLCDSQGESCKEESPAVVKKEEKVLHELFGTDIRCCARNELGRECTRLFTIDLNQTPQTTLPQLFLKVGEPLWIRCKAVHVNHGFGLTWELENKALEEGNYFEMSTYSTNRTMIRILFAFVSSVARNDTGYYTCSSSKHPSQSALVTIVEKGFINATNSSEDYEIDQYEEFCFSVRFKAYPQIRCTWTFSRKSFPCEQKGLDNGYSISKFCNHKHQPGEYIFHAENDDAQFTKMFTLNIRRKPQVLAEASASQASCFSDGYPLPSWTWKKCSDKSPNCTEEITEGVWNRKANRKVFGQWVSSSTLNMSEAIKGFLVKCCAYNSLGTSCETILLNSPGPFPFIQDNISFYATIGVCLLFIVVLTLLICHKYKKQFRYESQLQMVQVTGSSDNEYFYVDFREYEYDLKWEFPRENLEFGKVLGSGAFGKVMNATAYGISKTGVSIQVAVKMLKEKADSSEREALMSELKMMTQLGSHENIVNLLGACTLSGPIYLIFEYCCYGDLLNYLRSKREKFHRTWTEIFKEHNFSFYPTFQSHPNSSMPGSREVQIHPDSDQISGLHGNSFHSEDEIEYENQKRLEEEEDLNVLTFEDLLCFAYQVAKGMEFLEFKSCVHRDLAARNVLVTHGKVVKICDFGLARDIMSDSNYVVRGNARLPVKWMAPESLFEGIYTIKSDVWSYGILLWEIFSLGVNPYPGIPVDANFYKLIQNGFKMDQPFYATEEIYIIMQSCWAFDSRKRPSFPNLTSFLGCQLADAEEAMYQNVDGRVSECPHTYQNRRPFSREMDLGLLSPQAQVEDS
In words: Flt-3 kinase biochemical activity assay (AlphaScreen). As to conditions: 100 μM ATP; read-out: Biochemical Inhibition IC50 Flt3. The protocol: In one assay the biochemical activity IC50 values are determined with respect to inhibition of Flt-3 kinase activity, where inhibition of phosphorylation of a peptide substrate is measured as a function of compound concentration. Compounds to be tested, dissolved in DMSO (1 μL), are added to a white 384-well plate (Costar #3705). Working stocks of Flt-3 kinase (Invitrogen), biotin-(E4Y)10 substrate (Upstate Biotech, Cat#12-440), and ATP (Sigma, Cat#A-3377) are prepared in 25 mM Hepes pH 7.5, 5 mM MgCl2, 5 mM MnCl2, 1 mM DTT, and 0.01% Tween-20. All components are added to the 384-well plate for a final concentration of 1 ng/well Flt-3, 30 nM biotin-(E4Y)10 and 100 μM ATP in a volume of 20 μL. Each sample is at 5% DMSO. The plate is then incubated for 1 hour at room temperature. Just before use, working stocks of donor and acceptor beads from the AlphaScreen PY20 Detection Kit (PerkinElmer, Cat#676601M) are prepared in 25 mM Hepes pH 7.5, pH 7.4, 100 mM EDTA. 0.3% BSA. To stop the reaction, the plate is uncovered in the dark and 5 μL of Donor Beads solution (Streptavidin beads) is added to each well. The plate is incubated at room temperature for 20 minutes. Five microliters of Acceptor Beads solution (PY20 coated beads) are then added to each well. The final concentration of each bead is 10 μg/mL. The plates are incubated at room temperature for 60 minutes. Fluorescence signal is recorded on the Envision reader. Phosphorylated substrate results in binding of the PY20 antibody and association of the donor and acceptor beads such that signal correlates with kinase activity. The signal vs. compound concentration is used to determine the IC50.

c-Kit kinase, sequence (P10721 26-976): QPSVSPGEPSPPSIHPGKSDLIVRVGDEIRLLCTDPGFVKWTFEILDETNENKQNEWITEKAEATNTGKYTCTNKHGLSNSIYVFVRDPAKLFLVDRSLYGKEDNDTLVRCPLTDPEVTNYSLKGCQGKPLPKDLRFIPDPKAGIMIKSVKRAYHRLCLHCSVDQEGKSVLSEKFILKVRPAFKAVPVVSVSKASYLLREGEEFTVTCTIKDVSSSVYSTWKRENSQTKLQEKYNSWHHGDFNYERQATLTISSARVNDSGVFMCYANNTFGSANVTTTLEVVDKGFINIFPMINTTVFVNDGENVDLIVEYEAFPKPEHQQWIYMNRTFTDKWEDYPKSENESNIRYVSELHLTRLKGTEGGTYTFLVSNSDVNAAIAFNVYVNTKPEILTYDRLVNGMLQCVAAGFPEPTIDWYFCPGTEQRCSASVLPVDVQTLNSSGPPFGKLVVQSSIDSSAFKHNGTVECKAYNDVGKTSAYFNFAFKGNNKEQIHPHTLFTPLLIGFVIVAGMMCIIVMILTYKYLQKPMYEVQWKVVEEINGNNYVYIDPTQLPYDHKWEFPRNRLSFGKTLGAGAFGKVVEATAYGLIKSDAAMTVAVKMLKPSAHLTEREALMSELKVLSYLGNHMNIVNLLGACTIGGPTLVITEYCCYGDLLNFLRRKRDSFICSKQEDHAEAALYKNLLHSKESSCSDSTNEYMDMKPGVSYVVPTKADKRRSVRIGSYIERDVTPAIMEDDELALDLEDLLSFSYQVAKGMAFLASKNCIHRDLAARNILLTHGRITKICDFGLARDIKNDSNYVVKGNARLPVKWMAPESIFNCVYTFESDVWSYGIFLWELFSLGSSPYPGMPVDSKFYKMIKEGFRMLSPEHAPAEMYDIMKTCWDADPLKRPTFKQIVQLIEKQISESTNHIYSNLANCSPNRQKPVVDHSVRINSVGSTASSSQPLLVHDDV

What is called IC50 is the midpoint of a concentration-inhibition curve. For the compound `FC1(F)CCC(Nc2ncc(Cc3c[nH]c4ncc(Cl)cc34)cn2)CC1` [Compound P-3004], the IC50 was less than 1000 nM on c-Kit kinase and more than 1000 nM at Flt-3 kinase.

`COc1ccccc1Nc1ncc(Cc2c[nH]c3ncc(Cl)cc23)cn1` [Compound P-3016, [5-(5-Chloro-1H-pyrrolo[2,3-b]pyridin-3-ylmethyl)-pyrimidin-2-yl]-(2-methoxy-phenyl)-amine]: the IC50 at c-Kit kinase and on Flt-3 kinase was less than 100 nM in each case.

As to `Fc1cccc(Nc2ncc(Cc3c[nH]c4ncc(Cl)cc34)cn2)c1` [Compound P-3017, [5-(5-Chloro-1H-pyrrolo[2,3-b]pyridin-3-ylmethyl)-pyrimidin-2-yl]-(3-fluoro-phenyl)-amine], the IC50 on c-Kit kinase is less than 1000 nM; at Flt-3 kinase, less than 100 nM.

In the case of `Cc1cnc2[nH]cc(Cc3cnc(Nc4ccc(C(F)(F)F)nc4)nc3)c2c1` [Compound P-3018, [5-(5-Methyl-1H-pyrrolo[2,3-b]pyridin-3-ylmethyl)-pyrimidin-2-yl]-(6-trifluoromethyl-pyridin-3-yl)-amine], the half-maximal inhibitory concentration (IC50) at c-Kit kinase and at Flt-3 kinase was less than 10 nM throughout.

`COc1ccc(Nc2ccc(Cc3c[nH]c4ncc(C)cc34)c(F)n2)cn1` [Compound P-3019, [6-fluoro-5-(5-methyl-1H-pyrrolo[2,3-b]pyridin-3-ylmethyl)-pyridin-2-yl]-(6-methoxy-pyridin-3-yl)-amine]: the IC50 on c-Kit kinase and at Flt-3 kinase was less than 1000 nM throughout.

For `COc1ccc(Nc2ncc(Cc3c[nH]c4ncc(C)cc34)cn2)cn1` [Compound P-3020, (6-Methoxy-pyridin-3-yl)-[5-(5-methyl-1H-pyrrolo[2,3-b]pyridin-3-ylmethyl)-pyrimidin-2-yl]-amine], the half-inhibitory concentration (IC50) at c-Kit kinase and at Flt-3 kinase was less than 10 nM each time.

On to `COc1ccc(Nc2ncc(Cc3c[nH]c4ncc(C)cc34)cn2)cc1` [Compound P-3021, (4-Methoxy-phenyl)-[5-(5-methyl-1H-pyrrolo[2,3-b]pyridin-3-ylmethyl)-pyrimidin-2-yl]-amine], for which the IC50 at c-Kit kinase and on Flt-3 kinase was less than 10 nM throughout.

As to `COc1cc(Nc2ncc(Cc3c[nH]c4ncc(C)cc34)cn2)ccc1F` [Compound P-3022, (4-Fluoro-3-methoxy-phenyl)-[5-(5-methyl-1H-pyrrolo[2,3-b]pyridin-3-ylmethyl)-pyrimidin-2-yl]-amine], the half-maximal inhibitory concentration (IC50) at c-Kit kinase and on Flt-3 kinase was less than 100 nM throughout.

As to `CCCOc1ccc(Nc2ncc(Cc3c[nH]c4ncc(C)cc34)cn2)cc1` [Compound P-3024, [5-(5-Methyl-1H-pyrrolo[2,3-b]pyridin-3-ylmethyl)-pyrimidin-2-yl]-(4-propoxy-phenyl)-amine], the IC50 on c-Kit kinase and on Flt-3 kinase was less than 10 nM throughout.

Regarding `CCc1ccc(Nc2ncc(Cc3c[nH]c4ncc(C)cc34)cn2)cc1` [Compound P-3025, (4-Ethyl-phenyl)-[5-(5-methyl-1H-pyrrolo[2,3-b]pyridin-3-ylmethyl)-pyrimidin-2-yl]-amine], the IC50 at c-Kit kinase and at Flt-3 kinase was less than 10 nM throughout.

As to `CCOc1ccc(Nc2ncc(Cc3c[nH]c4ncc(C)cc34)cn2)cc1` [Compound P-3026, (4-Ethoxy-phenyl)-[5-(5-methyl-1H-pyrrolo[2,3-b]pyridin-3-ylmethyl)-pyrimidin-2-yl]-amine], the IC50 is less than 10 nM at c-Kit kinase and less than 100 nM at Flt-3 kinase.

`CCOc1ccc(Nc2ncc(Cc3c[nH]c4ncc(C)cc34)cn2)cn1` [Compound P-3027, (6-Ethoxy-pyridin-3-yl)-[5-(5-methyl-1H-pyrrolo[2,3-b]pyridin-3-ylmethyl)-pyrimidin-2-yl]-amine]: the half-maximal inhibitory concentration (IC50) at c-Kit kinase and on Flt-3 kinase was less than 10 nM in each case.

As for `CCn1ccc(Nc2ncc(Cc3c[nH]c4ncc(C)cc34)cn2)n1` [Compound P-3035, (1-Ethyl-1H-pyrazol-3-yl)-[5-(5-methyl-1H-pyrrolo[2,3-b]pyridin-3-ylmethyl)-pyrimidin-2-yl]-amine], the half-maximal inhibitory concentration (IC50) on c-Kit kinase and at Flt-3 kinase was less than 100 nM in each case.

In the case of `CCn1cc(Nc2ncc(Cc3c[nH]c4ncc(C)cc34)cn2)cn1` [Compound P-3036, (1-Ethyl-1H-pyrazol-4-yl)-[5-(5-methyl-1H-pyrrolo[2,3-b]pyridin-3-ylmethyl)-pyrimidin-2-yl]-amine], the half-inhibitory concentration (IC50) at c-Kit kinase and on Flt-3 kinase was less than 100 nM each time.

As for `CCOc1ccc(Nc2ccc(Cc3c[nH]c4ncc(C)cc34)c(F)n2)cn1` [Compound P-3039, (6-ethoxy-pyridin-3-yl)-[6-fluoro-5-(5-methyl-1H-pyrrolo[2,3-b]pyridin-3-ylmethyl)-pyridin-2-yl]-amine], the half-maximal inhibitory concentration (IC50) on c-Kit kinase and on Flt-3 kinase was less than 100 nM in each case.

Consider `COc1ccc(Nc2ccc(C(=O)c3c[nH]c4ncc(C)cc34)c(F)n2)cn1` [Compound P-3040, [2-Fluoro-6-(6-methoxy-pyridin-3-ylamino)-pyridin-3-yl]-(5-methyl-1H-pyrrolo[2,3-b]pyridin-3-yl)-methanone], for which the IC50 on c-Kit kinase was more than 1000 nM; at Flt-3 kinase, less than 100 nM.

For `Cc1cnc2[nH]cc(Cc3ccc(Nc4ccc(C)nc4)nc3F)c2c1` [Compound P-3041, [6-Fluoro-5-(5-methyl-1H-pyrrolo[2,3-b]pyridin-3-ylmethyl)-pyridin-2-yl]-(6-methyl-pyridin-3-yl)-amine], the IC50 at c-Kit kinase and on Flt-3 kinase was less than 1000 nM each time.

As to `Cc1ccc(Nc2ccc(Cc3c[nH]c4ncc(Cl)cc34)c(F)n2)cn1` [Compound P-3042, [5-(5-Chloro-1H-pyrrolo[2,3-b]pyridin-3-ylmethyl)-6-fluoro-pyridin-2-yl]-(6-methyl-pyridin-3-yl)-amine], the values for the IC50 at c-Kit kinase and at Flt-3 kinase were less than 100 nM and less than 1000 nM, respectively.

Consider `Cc1cnc2[nH]cc(C(=O)c3ccc(Nc4ccc(C)nc4)nc3F)c2c1` [Compound P-3043, [2-Fluoro-6-(6-methyl-pyridin-3-ylamino)-pyridin-3-yl]-(5-methyl-1H-pyrrolo[2,3-b]pyridin-3-yl)-methanone], for which the IC50 on c-Kit kinase and at Flt-3 kinase was less than 1000 nM in each case.

For `Cc1ccc(Nc2ccc(C(=O)c3c[nH]c4ncc(Cl)cc34)c(F)n2)cn1` [Compound P-3044, (5-Chloro-1H-pyrrolo[2,3-b]pyridin-3-yl)-[2-fluoro-6-(6-methyl-pyridin-3-ylamino)-pyridin-3-yl]-methanone], the IC50 at c-Kit kinase and at Flt-3 kinase was less than 1000 nM throughout.

Take `CCOc1ccc(Nc2ccc(C(=O)c3c[nH]c4ncc(C)cc34)c(F)n2)cn1` [Compound P-3045, [6-(6-ethoxy-pyridin-3-ylamino)-2-fluoro-pyridin-3-yl]-(5-methyl-1H-pyrrolo[2,3-b]pyridin-3-yl)-methanone]: the IC50 was less than 1000 nM at c-Kit kinase and less than 100 nM on Flt-3 kinase.

Consider `COc1ccc(Nc2ccc(Cc3c[nH]c4ncnc(OC)c34)c(F)n2)cn1` [Compound P-4001, [6-Fluoro-5-(4-methoxy-7H-pyrrolo[2,3-d]pyrimidin-5-ylmethyl)-pyridin-2-yl]-(6-methoxy-pyridin-3-yl)-amine], for which the IC50 at c-Kit kinase and at Flt-3 kinase was less than 1000 nM throughout.
